From US10406264B2, “Peptide having titanium-binding ability” (NANO INTELLIGENT BIOMEDICAL ENGINEERING CORPORATION. CO. LTD, priority 2016, dated 2019)
Where a SMILES comes first, the peptide text is derived from it. Where no end group is shown, it is not given here. [ ]: non-standard residue; d: D form. Ahx = NCCCCCC(=O)O

Assays:
[1] = binding assay using an avidin-biotin complex (binding affinity for titanium); conditions: biotin-labeled peptide 100 nM to 1 μM, 15 hours at room temperature, FIG. 1
Experimental: In order to examine the binding affinities of the peptides synthesized in Example 1 and Comparative Examples 1 and 2 for titanium, the peptides were labeled with biotin. Each of the peptides was biotinylated using EZ-Link Sulfo-NHS-Biotin (Pierce Biotechnology, USA) according to the manufacturer's instruction, and unbound byproducts were removed by ultrafiltration that is a membrane separation method based on a pressure difference. The molecular weights of the synthesized products were measured by mass spectrometry. The synthesized products were analyzed and purified by reverse phase liquid chromatography. For analysis, a C18 column having a diameter of 4.6 mm was used, and 0.1% TFA/H2O and 0.092% TFA/acetonitrile were flushed onto the column at a rate of 1 ml/min with a gradient of 0-60% for 30 minutes. The wavelength of the UV detector used was 220 nm. For purification, a column having a diameter of 2.2 cm was used, and a flow rate of 20 ml/min and the solvent and detection wavelength as described above were used. Only the biotin-labeled peptide fraction was collected, and concentrated using a rotary evaporator to remove the solvent, followed by freeze-drying.
The binding affinity of the titanium-binding peptide for titanium was measured by performing a binding assay using an avidin-biotin complex. Specifically, one titanium disc was placed in each well of a 24-well polystyrene plate, and then blocked with a blocking buffer (0.1 M NaHCO3 (pH 8.6), 5 mg/ml BSA, 0.02% NaN3 (optional), filter sterilize) for at least one hour. […] Each titanium disc was treated with 50 μl of 1% SDS solution to stop the reaction, and the absorbance at 405 nm was measured.

[2] = luminescent image analysis with enhanced chemiluminescence (ECL) solution; format: binding; conditions: ECL solution as substrate, FIG. 2
Experimental: Specifically, washing was performed at least three times with suitable washing solution to remove 2,2′-AZINO-BIS used as a substrate in the above procedure, and then analysis was performed with a luminescent image analyzer using enhanced chemiluminescence (ECL) solution.

[3] = maximum binding amount of titanium-binding peptide, avidin-biotin binding assay
Experimental: To examine the maximum binding amount of the titanium-binding peptide TBP (SEQ ID NO: 1) per unit area of the titanium disc surface, a binding assay using an avidin-biotin complex was performed. Specifically, one titanium disc was placed in each well of a 24-well polystyrene plate, and then blocked with a blocking buffer (0.1 M NaHCO3 (pH 8.6), 5 mg/ml BSA, 0.02% NaN3 (optional), filter sterilize) for at least one hour. Next, the blocking buffer was discarded, and each titanium disc was strongly washed six times or more with a washing buffer (TBS+0.1% [v/v] Tween-20), after which 50 μl of each of the titanium-binding peptide TBP (SEQ ID NO: 1) of Example 1 and the peptides TBP-C(SEQ ID NO: 2) and ZBP (SEQ ID NO: 5, Korean Patent Application No. 10-2015-0048441) of Comparative Examples 1 and 2, which were biotin-labeled, synthesized, separated and purified in Example 3-1, was dispensed to the surface of each titanium disc at a concentration ranging from 100 nM to 40 mM. Each titanium disc was incubated at room temperature for 15 hours, and then washed strongly with a washing buffer, and 50 μl of a 1:500 dilution of ExtrAvidin-peroxidase (Cat. #E2886, Sigma-Aldrich, USA) in a blocking buffer was dispensed to the surface of each titanium disc. Each titanium disc was incubated at room temperature for 1 hour, and then washed strongly with a washing buffer, after which 50 μl of a substrate solution (2,2′-AZINO-BIS, Cat. #A3219, Sigma-Aldrich, USA) was dispensed to the surface of each titanium disc and allowed to react at room temperature for 20 minutes so as to develop color. Each titanium disc was treated with 50 μl of 1% SDS solution to stop the reaction, and the absorbance at 405 nm was measured.

PDLSC cells = test: cell viability test (trypan blue count) on peptide-coated titanium discs; format: cell-based; conditions: for cytotoxicity for cells: administered alone, 3 days of incubation, FIG. 5; for Total cell number (viable cells), Average: average of #1 and #2; for Total cell number (viable cells), Average / Total cell number (viable cells), #1 / Total cell number (viable cells), #2: PDLSC, 3 days culture, disc coated per Table 2 (peptides 100 μM, BMP-2 100 ng/ml); for Total cell number (viable cells), #1: replicate #1; for Total cell number (viable cells), #2: replicate #2
Experimental: In order to evaluate whether or not a titanium binding peptide-linked osteogenic peptide (SEQ ID NO: 3 or SEQ ID NO: 4) and a titanium-binding peptide (SEQ ID NO: 1) are cytotoxic when these peptides are administered alone, a cell viability test was performed.
Specifically, one titanium disc was placed in each well of a 24-well low-attachment polystyrene plate and blocked with a blocking solution (0.1 M NaHCO3 (pH 8.6), 5 mg/ml BSA, 0.02% NaN3 (optional), filter sterilize) for at least 1 hour. Next, the blocking solution was discarded, and each well was washed three times or more with a washing solution (DPBS: Dulbeccos phosphate buffered saline), after which 50 μl of the solution shown in Table 2 below was dispensed and coated on the surface of each titanium disc. Each well was incubated at room temperature for 15 hours, and then washed three times or more with a washing solution (DPBS). Next, 3×10^4 PDLSC cells suspended in 50 μl of a medium (Minimum Essential Medium Eagle Alpha Modifications, Hyclone, USA) containing 10% FBS (Fetal Bovine Serum) and 1% antibiotic-antimycotic solution (Thermo Fisher Scientific, USA) were dispensed per titanium disc. […] Next, the cells were detached, stained with trypan blue, and counted with a hematocytometer to determine the number of viable cells.

[4] = system: periodontal ligament stem cells (PDLSCs); test: mineralization of periodontal ligament stem cells (Alizarin red S) on coated titanium discs; format: cell-based; conditions: day 18; significant p<0.05, not significant p>0.05
Experimental: Specifically, one titanium disc was placed in each well of a 24-well low-attachment polystyrene plate and blocked with a blocking solution (0.1 M NaHCO3 (pH 8.6), 5 mg/ml BSA, 0.02% NaN3 (optional), filter sterilize) for at least 1 hour. […] Each well was incubated at room temperature for 15 hours, and then washed three times or more with a washing solution (DPBS). Next, 3×10^4 PDLSC cells suspended in 50 μl of a medium (Minimum Essential Medium Eagle Alpha Modifications, Hyclone, USA) containing 10% FBS (Fetal Bovine Serum) and 1% antibiotic-antimycotic solution (Thermo Fisher Scientific, USA) were dispensed per titanium disc.

Compound | binding to the titanium disc surface (absorbance at 405 nm) [1] | binding to titanium disc detected by luminescent image analyzer [2] | concentration showing the maximum absorbance value ([3]; 100 nM to 40 mM tested, absorbance at 405 nm, FIGS. 3 and 4) [µM] | maximum amount of titanium-binding peptide bound to the surface of one titanium disc ([3]; back-calculation from molecular weight and dispensing amount, disc diameter 10 mm) [µg] | amount of titanium-binding peptide fixed per mm^2 of the titanium disc surface ([3]; disc diameter 10 mm) | cytotoxicity for cells (PDLSC cells) | Total cell number (viable cells), Average (PDLSC cells) | Total cell number (viable cells), #1 (PDLSC cells) | Total cell number (viable cells), #2 (PDLSC cells) | mineralization (absorbance at 570 nm), difference versus NT (negative control) group [4]
SLNYTGHRPVVH-NH2 [TBP] | binds to the titanium disc surface in a concentration-dependent manner | binds to a titanium disc | 100 | 8.025 | about 0.1022 μg per mm^2 | not cytotoxic | 7.0 × 10^4 | 7.0 × 10^4 | 7.0 × 10^4 | no statistically significant difference
VSPFGTKWSPFV (Zirconia Binding Peptide) [ZBP] | do not bind to the titanium disc surface | hardly bind to a titanium disc |  |  |  |  |  |  |  | 
SLNYTGHRPVVHGLRSKSKKFRRPDIQYPDA-NH2 [TBP-osteogenic peptide] |  |  |  |  |  | not cytotoxic | 7.8 × 10^4 | 7.5 × 10^4 | 8.0 × 10^4 | 
SLNATGARAVVA [TBP-C] | do not bind to the titanium disc surface | hardly bind to a titanium disc |  |  |  |  |  |  |  | 
GLRSKSKKFRRPDIQYPDA-NH2 [Osteogenic peptide, reference compound] |  |  |  |  |  |  | 7.0 × 10^4 | 7.5 × 10^4 | 6.5 × 10^4 | 
CC[C@H](C)[C@H](NC(=O)[C@H](CC(=O)O)NC(=O)[C@@H]1CCCN1C(=O)[C@H](CCCNC(=N)N)NC(=O)[C@H](CCCNC(=N)N)NC(=O)[C@H](Cc1ccccc1)NC(=O)[C@H](CCCCN)NC(=O)[C@H](CCCCN)NC(=O)[C@H](CO)NC(=O)[C@H](CCCCN)NC(=O)[C@H](CO)NC(=O)[C@H](CCCNC(=N)N)NC(=O)[C@H](CC(C)C)NC(=O)CNC(=O)CCCCCNC(=O)[C@H](Cc1c[nH]cn1)NC(=O)[C@@H](NC(=O)[C@@H](NC(=O)[C@@H]1CCCN1C(=O)[C@H](CCCNC(=N)N)NC(=O)[C@H](Cc1c[nH]cn1)NC(=O)CNC(=O)[C@@H](NC(=O)[C@H](Cc1ccc(O)cc1)NC(=O)[C@H](CC(N)=O)NC(=O)[C@H](CC(C)C)NC(=O)[C@@H](N)CO)[C@@H](C)O)C(C)C)C(C)C)C(=O)N[C@@H](CCC(N)=O)C(=O)N[C@@H](Cc1ccc(O)cc1)C(=O)N1CCC[C@H]1C(=O)N[C@@H](CC(=O)O)C(=O)N[C@@H](C)C(N)=O [TBP-Linker-osteogenic peptide] (H-SLNYTGHRPVVH[Ahx]GLRSKSKKFRRPDIQYPDA-NH2) |  |  |  |  |  | not cytotoxic | 6.8 × 10^4 | 6.0 × 10^4 | 7.5 × 10^4 | 
